The record followed here is the Kinase Knowledgebase extract (Sharma et al. 2016).

Structures are written as SMILES. pIC50: −log10 of the molar value. Positions of bridges follow the written chain, without caps; N, C: chain ends. Non-standard residues stand in square brackets, D forms with d. Residues, ends and D or L forms follow the SMILES beside them. *: point of attachment. pY = N[C@@H](Cc1ccc(OP(=O)(O)O)cc1)C(=O)O; O(2-Aminobenzoyl) = Nc1ccccc1C(=O)O*; X9 = O=S(=O)(O*)c1cccc2cccnc12; X13 = Nc1cc2ccccc2cc1C(=O)O*; X2 = O=C(O*)c1cc2ccccc2[nH]1; X3 = O=C(O*)c1cnc2ccccc2c1; X7 = O=C(O*)c1cc2ccccc2cn1; X8 = Nc1cc(N)cc(C(=O)O*)c1; X12 = Nc1ccccc1C(=O)OCCN*; X5 = O=C(O*)C1Cc2ccccc2N1; Ac6c = NC1(C(=O)O)CCCCC1; X11 = Nc1ccc(C(=O)O*)cc1; Ac5c = NC1(C(=O)O)CCCC1; X1 = Nc1ccccc1C(=O)OCN*; X6 = Nc1cccc(C(=O)O*)c1; X10 = Nc1ncccc1C(=O)O*; X4 = O=C(O*)c1ccccc1O; Acm = CC(=O)NC*

For the assay, the target named is EGFR (UniProt P00533).
Chain of EGFR (P00533 whole entry, looked up): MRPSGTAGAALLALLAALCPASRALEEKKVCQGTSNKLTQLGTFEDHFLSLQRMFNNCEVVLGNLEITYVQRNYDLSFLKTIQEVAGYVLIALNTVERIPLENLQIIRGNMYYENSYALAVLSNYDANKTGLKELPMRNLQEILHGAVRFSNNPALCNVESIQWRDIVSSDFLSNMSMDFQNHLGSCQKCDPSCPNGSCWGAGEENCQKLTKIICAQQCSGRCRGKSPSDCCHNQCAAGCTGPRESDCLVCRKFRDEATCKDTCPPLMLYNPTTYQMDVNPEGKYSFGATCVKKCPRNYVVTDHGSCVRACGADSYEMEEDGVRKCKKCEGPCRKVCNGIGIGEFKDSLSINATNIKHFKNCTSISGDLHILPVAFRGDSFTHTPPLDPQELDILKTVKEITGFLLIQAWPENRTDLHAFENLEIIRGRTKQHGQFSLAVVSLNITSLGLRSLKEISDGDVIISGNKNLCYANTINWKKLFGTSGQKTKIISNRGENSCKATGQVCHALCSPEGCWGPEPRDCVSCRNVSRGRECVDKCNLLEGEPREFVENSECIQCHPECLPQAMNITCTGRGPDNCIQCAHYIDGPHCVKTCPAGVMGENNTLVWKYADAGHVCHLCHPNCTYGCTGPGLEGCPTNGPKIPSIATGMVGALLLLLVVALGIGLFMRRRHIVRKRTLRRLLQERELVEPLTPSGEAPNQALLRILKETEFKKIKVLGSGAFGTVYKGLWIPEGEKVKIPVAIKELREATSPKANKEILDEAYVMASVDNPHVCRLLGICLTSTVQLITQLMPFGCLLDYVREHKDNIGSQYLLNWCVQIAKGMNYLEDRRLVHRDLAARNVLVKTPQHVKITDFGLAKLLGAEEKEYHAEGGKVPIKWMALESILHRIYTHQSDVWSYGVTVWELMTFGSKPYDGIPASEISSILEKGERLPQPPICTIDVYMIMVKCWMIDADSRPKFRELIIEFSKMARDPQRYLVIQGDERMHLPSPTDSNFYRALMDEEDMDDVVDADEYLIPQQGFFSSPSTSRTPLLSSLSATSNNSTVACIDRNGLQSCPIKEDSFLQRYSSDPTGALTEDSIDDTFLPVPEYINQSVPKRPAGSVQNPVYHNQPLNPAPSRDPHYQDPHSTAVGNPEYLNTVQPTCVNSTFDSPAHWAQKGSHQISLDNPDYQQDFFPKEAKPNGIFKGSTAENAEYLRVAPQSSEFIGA

The molecule `CC[C@H](C)[C@H](NC(=O)[C@H](CC(N)=O)NC(=O)[C@@H](N)CSCNC(C)=O)C(=O)N[C@@H](Cc1ccc(OP(=O)(O)O)cc1)C(=O)N[C@@H](CSCNC(C)=O)C(=O)OC(=O)c1ccccc1N` gave a pIC50 of 7.02.

The molecule `CC[C@H](C)[C@H](NC(=O)[C@H](CC(N)=O)NC(=O)[C@H](N)CSCNC(C)=O)C(=O)N[C@@H](Cc1ccc(OP(=O)(O)O)cc1)C(=O)N[C@@H](CSCNC(C)=O)C(=O)OC(=O)c1ccccc1N` showed a pIC50 of 6.57.

The molecule `CC[C@H](C)[C@@H]1NC(=O)[C@H](CC(N)=O)NC(=O)[C@@H](N)CSSC[C@@H](C(=O)OC(=O)c2ccccc2N)NC(=O)[C@H](Cc2ccc(OP(=O)(O)O)cc2)NC1=O` (H-CNI[pY]C-{O(2-Aminobenzoyl)}; disulfide 1-5) gave a pIC50 of 6.67.

The molecule `CC[C@H](C)[C@@H]1NC(=O)[C@H](CC(N)=O)NC(=O)[C@H](CCC(N)=O)NC(=O)[C@@H](N)CSSC[C@@H](C(=O)OC(=O)c2ccccc2N)NC(=O)[C@H](Cc2ccc(OP(=O)(O)O)cc2)NC1=O` (H-CQNI[pY]C-{O(2-Aminobenzoyl)}; disulfide 1-6) had a pIC50 of 7.82.

`CC[C@H](C)[C@H](N)C(=O)N[C@H](C(=O)N[C@@H](Cc1ccc(OP(=O)(O)O)cc1)C(=O)N[C@@H](CC(=O)O)C(=O)OC(=O)c1ccccc1N)[C@@H](C)CC` (H-II[pY]D-{O(2-Aminobenzoyl)}): the pIC50 is 6.64.

Molecule `CC[C@H](C)[C@H](NC(=O)[C@@H](N)CC(N)=O)C(=O)N[C@@H](Cc1ccc(OP(=O)(O)O)cc1)C(=O)N[C@@H](CCC(=O)O)C(=O)OC(=O)c1ccccc1N` (H-NI[pY]E-{O(2-Aminobenzoyl)}) had a pIC50 of 7.66.

`CC[C@H](C)[C@H](NC(=O)[C@@H](N)CC(N)=O)C(=O)N[C@@H](Cc1ccc(OP(=O)(O)O)cc1)C(=O)N[C@@H](Cc1ccccc1)C(=O)OC(=O)c1ccccc1N` (H-NI[pY]F-{O(2-Aminobenzoyl)}): the pIC50 was 7.27.

For the molecule `NC(=O)C[C@H](N)C(=O)NC1(C(=O)N[C@@H](Cc2ccc(OP(=O)(O)O)cc2)C(=O)N[C@@H](CCC(=O)O)C(=O)OC(=O)c2ccccc2N)CCCC1` (H-N[Ac5c][pY]E-{O(2-Aminobenzoyl)}), the pIC50 is 7.19.

For `NC(=O)C[C@H](N)C(=O)NC1(C(=O)N[C@@H](Cc2ccc(OP(=O)(O)O)cc2)C(=O)N[C@@H](CCC(=O)O)C(=O)OC(=O)c2ccccc2N)CCCCC1` (H-N[Ac6c][pY]E-{O(2-Aminobenzoyl)}), the pIC50 is 7.85.

Regarding `CC(=O)NCSC[C@H](NC(=O)[C@H](CC(N)=O)NC(=O)[C@@H](N)CCC(N)=O)C(=O)N[C@@H](Cc1ccc(OP(=O)(O)O)cc1)C(=O)N[C@@H](CSCNC(C)=O)C(=O)OC(=O)c1ccccc1N` (H-QNC(Acm)[pY]C(Acm)-{O(2-Aminobenzoyl)}), the pIC50 is 5.50.

`NC(=O)CC[C@H](N)C(=O)N[C@@H](CC(N)=O)C(=O)N[C@H]1CSSC[C@@H](C(=O)OC(=O)c2ccccc2N)NC(=O)[C@H](Cc2ccc(OP(=O)(O)O)cc2)NC1=O` (H-QNC[pY]C-{O(2-Aminobenzoyl)}; disulfide 3-5) showed a pIC50 of 6.24.

For the molecule `CC[C@H](C)[C@H](NC(=O)[C@H](CC(N)=O)NC(=O)[C@@H](N)CCC(N)=O)C(=O)N[C@@H](Cc1ccc(OP(=O)(O)O)cc1)C(=O)NCOC(=O)c1ccccc1N` (H-QNI[pY]-X1), the pIC50 was 8.22.

The molecule `CC[C@H](C)[C@H](NC(=O)[C@H](CC(N)=O)NC(=O)[C@@H](N)CCC(N)=O)C(=O)N[C@@H](Cc1ccc(OP(=O)(O)O)cc1)C(=O)N[C@@H](C)C(=O)OC(=O)c1ccccc1N` (H-QNI[pY]A-{O(2-Aminobenzoyl)}) gave a pIC50 of 7.96.

For the molecule `CC[C@H](C)[C@H](NC(=O)[C@H](CC(N)=O)NC(=O)[C@@H](N)CCC(N)=O)C(=O)N[C@@H](Cc1ccc(OP(=O)(O)O)cc1)C(=O)N[C@@H](CCC(=O)O)C(=O)OC(=O)c1cc2ccccc2[nH]1` (H-QNI[pY]E-X2), the pIC50 was 6.70.

`CC[C@H](C)[C@H](NC(=O)[C@H](CC(N)=O)NC(=O)[C@@H](N)CCC(N)=O)C(=O)N[C@@H](Cc1ccc(OP(=O)(O)O)cc1)C(=O)N[C@@H](CCC(=O)O)C(=O)OC(=O)c1cnc2ccccc2c1` (H-QNI[pY]E-X3) showed a pIC50 of 6.09.

As for `CC[C@H](C)[C@H](NC(=O)[C@H](CC(N)=O)NC(=O)[C@@H](N)CCC(N)=O)C(=O)N[C@@H](Cc1ccc(OP(=O)(O)O)cc1)C(=O)N[C@@H](CCC(=O)O)C(=O)OC(=O)c1ccccc1O` (H-QNI[pY]E-X4), the pIC50 is 6.11.

`CC[C@H](C)[C@H](NC(=O)[C@H](CC(N)=O)NC(=O)[C@@H](N)CCC(N)=O)C(=O)N[C@@H](Cc1ccc(OP(=O)(O)O)cc1)C(=O)N[C@@H](CCC(=O)O)C(=O)OC(=O)C1Cc2ccccc2N1` (some centres undefined) (H-QNI[pY]E-X5) gave a pIC50 of 7.13.

For the molecule `CC[C@H](C)[C@H](NC(=O)[C@H](CC(N)=O)NC(=O)[C@@H](N)CCC(N)=O)C(=O)N[C@@H](Cc1ccc(OP(=O)(O)O)cc1)C(=O)N[C@@H](CCC(=O)O)C(=O)OC(=O)c1cccc(N)c1` (H-QNI[pY]E-X6), the pIC50 was 7.24.

Molecule `CC[C@H](C)[C@H](NC(=O)[C@H](CC(N)=O)NC(=O)[C@@H](N)CCC(N)=O)C(=O)N[C@@H](Cc1ccc(OP(=O)(O)O)cc1)C(=O)N[C@@H](CCC(=O)O)C(=O)OC(=O)c1cc2ccccc2cn1` (H-QNI[pY]E-X7) had a pIC50 of 6.26.

In turn, `CC[C@H](C)[C@H](NC(=O)[C@H](CC(N)=O)NC(=O)[C@@H](N)CCC(N)=O)C(=O)N[C@@H](Cc1ccc(OP(=O)(O)O)cc1)C(=O)N[C@@H](CCC(=O)O)C(=O)OC(=O)c1cc(N)cc(N)c1` (H-QNI[pY]E-X8) had a pIC50 of 6.74.

With `CC[C@H](C)[C@H](NC(=O)[C@H](CC(N)=O)NC(=O)[C@@H](N)CCC(N)=O)C(=O)N[C@@H](Cc1ccc(OP(=O)(O)O)cc1)C(=O)N[C@@H](CCC(=O)O)C(=O)OC(=O)c1cccnc1N` (H-QNI[pY]E-X10), the pIC50 was 6.32.

On to `CC[C@H](C)[C@H](NC(=O)[C@H](CC(N)=O)NC(=O)[C@@H](N)CCC(N)=O)C(=O)N[C@@H](Cc1ccc(OP(=O)(O)O)cc1)C(=O)N[C@@H](CCC(=O)O)C(=O)OC(=O)c1ccc(N)cc1` (H-QNI[pY]E-X11), for which the pIC50 was 6.64.

Consider `CC[C@H](C)[C@H](NC(=O)[C@H](CC(N)=O)NC(=O)[C@@H](N)CCC(N)=O)C(=O)N[C@@H](Cc1ccc(OP(=O)(O)O)cc1)C(=O)N[C@@H](CCC(=O)O)C(=O)NCCOC(=O)c1ccccc1N` (H-QNI[pY]E-X12), for which the pIC50 is 6.89.

Molecule `CC[C@H](C)[C@H](NC(=O)[C@H](CC(N)=O)NC(=O)[C@@H](N)CCC(N)=O)C(=O)N[C@@H](Cc1ccc(OP(=O)(O)O)cc1)C(=O)N[C@@H](CCC(=O)O)C(=O)OC(=O)c1cc2ccccc2cc1N` (H-QNI[pY]E-X13) had a pIC50 of 6.22.

Regarding `CC[C@H](C)[C@H](NC(=O)[C@H](CC(N)=O)NC(=O)[C@@H](N)CCC(N)=O)C(=O)N[C@@H](Cc1ccc(OP(=O)(O)O)cc1)C(=O)N[C@@H](CCC(=O)O)C(=O)OC(=O)c1ccccc1N` (H-QNI[pY]E-{O(2-Aminobenzoyl)}), the pIC50 is 7.66.

`CC[C@H](C)[C@H](NC(=O)[C@H](CC(N)=O)NC(=O)[C@@H](N)CCC(N)=O)C(=O)N[C@@H](Cc1ccc(OP(=O)(O)O)cc1)C(=O)N[C@H](C(=O)OS(=O)(=O)c1cccc2cccnc12)[C@@H](C)CC` (H-QNI[pY]I-X9) showed a pIC50 of 6.64.

For `CC[C@H](C)[C@H](NC(=O)[C@H](CC(N)=O)NC(=O)[C@@H](N)CCC(N)=O)C(=O)N[C@@H](Cc1ccc(OP(=O)(O)O)cc1)C(=O)N[C@H](C(=O)OC(=O)c1ccccc1N)[C@@H](C)CC` (H-QNI[pY]I-{O(2-Aminobenzoyl)}), the pIC50 is 8.22.

For `CC[C@H](C)[C@H](NC(=O)[C@H](CC(N)=O)NC(=O)[C@@H](N)CCC(N)=O)C(=O)N[C@@H](Cc1ccc(OP(=O)(O)O)cc1)C(=O)N[C@@H](CC(C)C)C(=O)OC(=O)c1ccccc1N` (H-QNI[pY]L-{O(2-Aminobenzoyl)}), the pIC50 is 6.86.

For the molecule `CC[C@H](C)[C@H](NC(=O)[C@H](CC(N)=O)NC(=O)[C@@H](N)CCC(N)=O)C(=O)N[C@@H](Cc1ccc(OP(=O)(O)O)cc1)C(=O)N[C@H](C(=O)OC(=O)c1ccccc1N)C(C)C` (H-QNI[pY]V-{O(2-Aminobenzoyl)}), the pIC50 is 6.97.

Broadly, the pIC50 is the IC50 on a negative log10 scale, so that one unit is a factor of ten.
